Drawing on patent publication US7612099B2, “Vinylogous acid derivatives” (Hoffmann-La Roche Inc., priority 2005, dated 2009), this text covers IC50 for 7 compounds.

In the assay the target is T1, Chymase purified form human skin mast cells (Homo sapiens, UniProt P23946).
T1 construct: Chymase purified form human skin mast cells was obtained from Calbiochem; purchased Calbiochem (Merck Biosciences, San Diego, Calif., USA); host or cells: human skin mast cells (tissue-derived, not recombinant)
T1 sequence (P23946 22-247): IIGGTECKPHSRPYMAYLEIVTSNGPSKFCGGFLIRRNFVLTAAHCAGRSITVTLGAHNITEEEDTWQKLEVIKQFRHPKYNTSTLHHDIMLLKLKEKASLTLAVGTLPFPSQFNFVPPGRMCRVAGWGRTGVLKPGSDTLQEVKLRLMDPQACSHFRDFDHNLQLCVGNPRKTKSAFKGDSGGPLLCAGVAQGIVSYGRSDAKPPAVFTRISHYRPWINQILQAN
As to the kind of experiment: chymase peptide substrate assay (AAPF-AMC fluorescence). To be noted: 0.02 mM AAPF-substrate, 1 nM Chymase, pH 7.4, room temperature, 30 min pre-incubation. Format: biochemical. As to the method:
The peptide was synthesized with a purity of 95% from Bachem, Bubendorf, Switzerland). Chymase purified form human skin mast cells was obtained from Calbiochem (Merck Biosciences, San Diego, Calif., USA). The assay buffer was 0.15 M NaCl, 0.05M, Tris HCl, 0.05% CHAPS (3-[(3-Cholamidopropyl)-dimethylammonio]-1-propane sulphonate), 0.1 mg/ml Heparin (Heparin sodium, Sigma, porcine intestinal mucosa), 0.02 mM AAPF-substrate, 1 nM Chymase at pH 7.4. The assay was performed in 96-well plates (Packard Optiplate), with a 0.05 ml volume at room temperature. Chymase activity was indicated by the initial rate of increase in fluorescence at 340/440 nm (excitation/emission) from free 7-amino-4-methylcoumarin released from the substrate. Inhibition of the activity by inhibitory compounds was read after 30 min pre-incubation with the chymase at room temperature in assay buffer without AAPF-substrate. The assay was then started by addition of the indicated concentration of AAPF-substrate.
Regarding `Cc1c(C(C2=C(O)C(C(C)C)N(C)C2=O)c2ccccc2)[nH]c2ccc(F)cc12` (stereo not shown) [Example 11, 3-[(5-Fluoro-3-methyl-1H-indol-2-yl)-phenyl-methyl]-4-hydroxy-5-isopropyl-1-methyl-1,5-dihydro-pyrrol-2-one], 13 nM corresponded to half-maximal inhibition (IC50).
As for `CC(=O)NCCc1c(C(C2=C(O)C(Cc3ccccc3)OC2=O)c2ccccc2)[nH]c2cc(F)ccc12` (stereo not shown) [Example 16, N-(2-{2-[(5-Benzyl-4-hydroxy-2-oxo-2,5-dihydro-furan-3-yl)-phenyl-methyl]-6-fluoro-1H-indol-3-yl}-ethyl)-acetamide], the figure is 24 nM; as for `CC(=O)NCCc1c(C(C2=C(O)C(c3ccccc3)CC2=O)c2ccccc2)[nH]c2cc(F)ccc12` (stereo not shown) [Example 43, N-(2-{6-Fluoro-2-[(2-hydroxy-5-oxo-3-phenyl-cyclopent-1-enyl)-phenyl-methyl]-1H-indol-3-yl}-ethyl)-acetamide], 3 nM.
As for `CC(=O)NCc1c(C(C2=C(O)[C@@](C)(c3ccccc3)NC2=O)c2ccccc2)[nH]c2cc(C)ccc12` (stereo partly drawn) [Example 63, N-{2-[((R)-4-Hydroxy-5-methyl-2-oxo-5-phenyl-2,5-dihydro-1H-pyrrol-3-yl)-phenyl-methyl]-6-methyl-1H-indol-3-ylmethyl}-acetamide], the figure is 10 nM; as for `Cc1c(C(C2=C(O)[C@@](C)(c3ccccc3)NC2=O)c2ccccc2)[nH]c2ccc(F)cc12` (stereo partly drawn) [Example 67, (R)-3-[(5-Fluoro-3-methyl-1H-indol-2-yl)-phenyl-methyl]-4-hydroxy-5-methyl-5-phenyl-1,5-dihydro-pyrrol-2-one], 5 nM.
`CC(=O)NCc1c(C(C2=C(O)[C@@](C)(c3ccccc3)OC2=O)c2ccccc2)[nH]c2cc(C)ccc12` (stereo partly drawn) [Example 72, N-{2-[((R)-4-Hydroxy-5-methyl-2-oxo-5-phenyl-2,5-dihydro-furan-3-yl)-phenyl-methyl]-6-methyl-1H-indol-3-ylmethyl}-acetamide] registered a 50% inhibitory concentration (IC50) of 15 nM.
The compound `Cc1c(C(C2=C(O)C(c3ccccc3)CC2=O)c2ccccc2)[nH]c2ccc(F)cc12` (stereo not shown) [Example 79, 2-[(5-Fluoro-3-methyl-1H-indol-2-yl)-phenyl-methyl]-3-hydroxy-4-phenyl-cyclopent-2-enone] displayed an IC50 of 2 nM. Against the preceding compound, the IC50 is about 7.5-fold lower.
